US8471027B2, “Adamantyl compounds” (Hoffmann-La Roche Inc., priority 2011, dated 2013)

Legend:
[1] = system: phospho(Ser63)-c-jun in HK-2 cells; experiment: Cell-based assay for JNK inhibitors: in-cell ELISA of TNFα-stimulated phospho(Ser63)-c-jun in HK-2 cells; conditions: Homo sapiens, 10 ng/mL TNFα, 60 min preincubation with compound
Method: Cell-Based Assay for JNK Inhibitors
The cell-based assay employed the in-cell ELISA method to determine the ability of compounds to prevent the generation of phospho(Ser63)-c-jun in HK-2 cells (human proximal tubule cells) in response to stimulation with tumor necrosis factor α (TNFα). In brief, for quantification of phospho(Ser63)-c-jun, the cells (in 96-well format) were fixed and permeablized then incubated sequentially with a rabbit anti-phospho-c-jun First Antibody specific for the presence of the phospho-Ser63 epitope and a donkey anti-rabbit IgG Second Antibody linked to horseradish peroxidase (HRP) for colorimetric quantitation of binding. For determination of non-specific binding of the First Antibody, Blank wells were preincubated with a mouse anti-phospho(Ser63)-c-jun Blocking Antibody that prevented specific binding of the First Antibody to the phospho-Ser63 epitope, but which was not recognized by the donkey anti-rabbit IgG Second Antibody. […] Blank wells received no TNFα stimulation or compound. Additional Control wells received TNFα stimulation, but no compound. The signal obtained in this case was considered the value for 0% inhibition (Control value).
Stock cultures of HK-2 cells (ATCC, Manassas, Va.) were grown under a 5% CO2/[…] atmosphere at 37 degrees C. in Keratinocyte-SFM medium (KSFM, Invitrogen, Grand Island, N.Y.) containing 5 μg/L epidermal growth factor and 5 mg/L bovine pituitary extract (both supplied with the medium), additionally supplemented with 10% (v/v) fetal calf serum (FCS; Invitrogen, Grand Island, N.Y.) and 1% (v/v) antibiotic-antimycotic (ABAM: Sigma, St. Louis, Mo.). For assays, cells were seeded in collagen coated 96-well polystyrene plates (BD Biosciences, Franklin Lakes, N.J.) at a density of 40,000 cells/well and cultured for 24 h in the same medium (100 μL/well) followed by a further 16-24 h in 100 μL of similar medium, but without FCS. […] Cells were incubated for a further 30 minutes and then the medium was aspirated and the wells washed with 100 μL/well PBS followed by the addition of 100 μL 3.7% (v/v) Formaldehyde (Fisher Scientific, Fair Lawn, N.J.) in PBS. Plates were then allowed to stand at room temperature for 20 minutes before being washed with 200 μL/well of PBS. (Further steps were performed immediately or the plates were stored at 4 degrees C. and the assay completed the next day.) To each well was added 100 μL 1% (v/v) TritonX-100 (Sigma, St. Louis, Mo.) in PBS followed by 20 minutes standing at room temperature, washing with 200 μL/well PBS, the addition of 100 μL/well of Quenching buffer (1% (v/v) hydrogen peroxide (Sigma, St. Louis, Mo.) and 0.1% (w/v) sodium azide (Fisher Scientific, Fair Lawn, N.J.)) in PBS and a further 20 minutes at room temperature. Plates were then washed twice with 200 μL/well of 0.1% (v/v) Tween-20 (Teknova, Hollister, Calif.) in PBS before addition of 200 μL/well of 2% BSA/0.10% Tween-20 in PBS and a further 1 hour at room temperature. At this time, buffer was removed from Blank wells and replaced with 90 μL/well of mouse anti-phospho-c-jun-Ser63 (BD Bioscience, 558036) diluted 1:4000 in PBS containing 1% BSA/0.1% Tween-20 (Antibody Dilution Buffer). All other wells are replaced with 90 μL/well of rabbit anti-phospho-c-jun-Ser63 (Cell Signaling, 9261) diluted 1:250 in Antibody Dilution Buffer. After a further one hour, rabbit anti-phospho-c-jun-Ser63 is added directly to the solution in the Blank wells resulting in 1:250 dilution of this antibody. Plates were then placed on a slowly rotating platform at 4 degrees C. overnight. Wells were then washed thrice with 200 μL/well PBS/0.1% Tween-20. After addition of the third wash, the plates were placed on a slowly rotating platform for 15 minutes at room temperature. […]

[2] = system: phospho-(Ser63)-c-jun; experiment: Rat In Vivo TNFα-Induced Kidney Phospho-c-Jun Assay; design: species or system Sprague-Dawley rats; conditions: Example D, 2 doses of 75 mg/kg oral (0 and 12 h), TNFα 2.5 ug/kg i.v. at 23 h, killed 1 h later, normalized to Group 2 as 100%, mean (standard deviation)
Method: Male Sprague-Dawley rats were obtained from Charles River and acclimatized for at least one week prior to use at age 6-8 weeks. Rats (n=8 per group) were administered Compound I-1 (Group 3; 75 mg/kg from a Microprecipitated Bulk Powder formulation resuspended in Klucel vehicle at 18.75 mg/mL) or vehicle alone (Groups 1 and 2) via oral gavage. Seven hours later, rats received an intravenous challenge of 2.5 μg/kg recombinant rat TNFα (Sigma) in saline (Groups 2 and 3) or saline alone (Group 1). After a further 1 h, the animals were killed by carbon dioxide inhalation. Kidneys were removed, rapidly frozen in liquid nitrogen and stored at −80 degrees until analysis.
Sample analysis was performed as described for mouse kidneys in Example a.
Male Sprague-Dawley rats were obtained from Charles River and acclimatized for at least one week prior to use at age 6-8 weeks. Rats (n=8 per group) were administered Compound I-1 (Groups 3 and 4; 75 mg/kg from a Microprecipitated Bulk Powder formulation resuspended in Klucel vehicle at 18.75 mg/mL) or vehicle alone (Groups 1 and 2) via oral gavage. Group 3 received an additional identical dose 12 hours later. Group 4 received an additional identical dose at 8 and 16 hours after the first dose. […]

[3] = molecular target: JNK1 (Homo sapiens, UniProt P45983); experiment: In vitro JNK1 Assay (TR-FRET, phosphorylation of GST-c-Jun); assay type: biochemical; conditions: 0.2 nM JNK1, 26.7 nM GST-c-Jun, 2 μM ATP
JNK1, sequence (P45983 whole entry, species assumed, the tested form may be a part): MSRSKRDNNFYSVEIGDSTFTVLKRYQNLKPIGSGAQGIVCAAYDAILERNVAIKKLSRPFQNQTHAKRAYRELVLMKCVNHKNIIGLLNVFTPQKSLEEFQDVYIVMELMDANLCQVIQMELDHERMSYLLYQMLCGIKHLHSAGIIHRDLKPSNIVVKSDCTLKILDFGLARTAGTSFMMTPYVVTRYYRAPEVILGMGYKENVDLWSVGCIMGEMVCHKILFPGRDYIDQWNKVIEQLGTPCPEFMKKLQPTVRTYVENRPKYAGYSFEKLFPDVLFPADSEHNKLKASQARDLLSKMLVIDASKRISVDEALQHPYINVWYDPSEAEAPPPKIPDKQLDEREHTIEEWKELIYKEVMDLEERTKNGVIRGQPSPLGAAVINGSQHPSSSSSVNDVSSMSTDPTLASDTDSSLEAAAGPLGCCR
Method: Phosphorylation of GST-c-Jun protein (amino acid residues 1-79) was measured as JNK1 activity. […] The reaction buffer contained 50 mM HEPES, pH 7.0, 10 mM MgCl2, 1 mM DTT, 0.1 mM Na3 VO4 and 0.2 mg/mL BSA. After 30 min. incubation at room temperature, the reaction was terminated by adding buffer containing 8 mM EDTA and a polyclonal anti-phospho-c-Jun antibody (Cell Signaling #9261L), followed by an additional incubation of 30 min. at room temperature. […] Time-resolved Fluorescence Resonance Energy Transfer (TR-FRET) signals were measured 1 hr. later on the EnVision reader (Perkin Elmer). Compound potency was assessed at 10 serially diluted concentrations. Percentage of inhibition at each concentration was determined to generate an IC50 value for each compound.

In the case of COC(=O)c1c(Cc2ccc(C(=O)N[C@@H]3[C@@H]4C[C@@H]5C[C@H]3C[C@@](O)(C5)C4)cc2)c(=O)c2cccnc2n1-c1ccccc1 [Compound I-1, rel-3-[4-((1S,2S,3R,5S,7S)-5-Hydroxy-adamantan-2-ylcarbamoyl)-benzyl]-4-oxo-1-phenyl-1,4-dihydro-[1,8]naphthyridine-2-carboxylic acid methyl ester], the EC50 [1] is reported as 4100 nM, the Kidney phospho-c-jun [2] is reported as 59.6 (30.0) % and the IC50 [3] is reported as 12 nM.
